The text below walks through data of ChEMBL document CHEMBL1201862, “PubChem BioAssay data set” (2004).

Each structure is given as a SMILES string. Activity calls are given as the source filed them. Cut-off read from the data, not from the text of the source, for most assays here: actives have a measured EC50 and inactives only a lower limit. Peptide text beside a SMILES is read from it. * marks the point of attachment. Cbz = O=C(OCc1ccccc1)*

For one assay, the target named is Cytochrome P450 2C9 (Homo sapiens, UniProt P11712).
Cytochrome P450 2C9, sequence (P11712 whole entry): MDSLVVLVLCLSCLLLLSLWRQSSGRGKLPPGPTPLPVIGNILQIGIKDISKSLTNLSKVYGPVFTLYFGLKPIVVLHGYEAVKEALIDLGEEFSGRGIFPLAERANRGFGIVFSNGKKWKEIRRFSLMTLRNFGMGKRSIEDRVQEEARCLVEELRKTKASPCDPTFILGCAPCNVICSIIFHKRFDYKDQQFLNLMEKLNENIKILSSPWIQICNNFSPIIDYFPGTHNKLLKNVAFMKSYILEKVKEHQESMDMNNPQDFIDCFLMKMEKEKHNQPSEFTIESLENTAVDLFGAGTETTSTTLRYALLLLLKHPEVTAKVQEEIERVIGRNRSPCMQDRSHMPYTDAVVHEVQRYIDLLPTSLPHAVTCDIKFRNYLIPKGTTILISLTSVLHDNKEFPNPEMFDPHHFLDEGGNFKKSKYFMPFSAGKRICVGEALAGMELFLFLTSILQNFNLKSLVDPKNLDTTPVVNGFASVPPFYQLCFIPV
Assay [1] in a line: Trypanosoma cruzi growth suppression in host cells – NIH3T3 host cells, beta-gal luminescence, confirmation (AID 2044).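 Note: intracellular parasites grown in NIH/3T3 mouse fibroblasts as host cells; luminescent beta-galactosidase reporter signal from transgenic T. cruzi replicating inside host cells; inhibitors lower the luminescence signal.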 The assay is classed as functional, cell-based.
Assay [2] can be described thus: NIH3T3 cell viability loss – ATP luminescence, mouse fibroblasts, counter-screen, dose response (AID 2010).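 Note: cells exposed to compound for about 90 hours before reading.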 Type of assay: functional, cell-based. (The purpose of a counterscreen is to sort out artefacts and off-target activity.)
Assay [3] addresses T1, Corticotropin-releasing factor receptor 2/Corticotropin-releasing factor-binding protein (Homo sapiens, UniProt P24387+Q13324).
T1 sequence (Q13324 whole entry): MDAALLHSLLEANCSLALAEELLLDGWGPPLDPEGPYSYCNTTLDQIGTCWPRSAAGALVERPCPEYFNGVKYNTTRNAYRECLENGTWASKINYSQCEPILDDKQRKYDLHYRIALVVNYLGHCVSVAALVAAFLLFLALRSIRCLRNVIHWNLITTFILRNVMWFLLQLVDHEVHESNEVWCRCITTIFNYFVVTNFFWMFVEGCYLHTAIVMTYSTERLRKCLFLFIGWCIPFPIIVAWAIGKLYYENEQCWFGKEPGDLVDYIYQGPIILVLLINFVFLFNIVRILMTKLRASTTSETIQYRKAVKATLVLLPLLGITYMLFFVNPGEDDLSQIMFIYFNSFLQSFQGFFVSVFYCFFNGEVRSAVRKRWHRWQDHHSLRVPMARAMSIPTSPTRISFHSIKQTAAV
T1 sequence (P24387 whole entry): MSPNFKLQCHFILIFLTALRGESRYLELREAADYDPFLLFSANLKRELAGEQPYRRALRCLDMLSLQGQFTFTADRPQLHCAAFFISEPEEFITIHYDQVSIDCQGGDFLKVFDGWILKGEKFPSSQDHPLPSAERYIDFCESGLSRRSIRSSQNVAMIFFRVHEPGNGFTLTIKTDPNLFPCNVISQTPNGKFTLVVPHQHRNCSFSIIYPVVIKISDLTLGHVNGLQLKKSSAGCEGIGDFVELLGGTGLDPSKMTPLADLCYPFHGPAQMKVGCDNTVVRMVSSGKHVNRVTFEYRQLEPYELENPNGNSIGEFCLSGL
The experiment in a line: Dose Response confirmation of uHTS hits for small molecule antagonists of the CRF-binding protein and CRF-R2 receptor complex. Type of assay: functional. The settings on record: read-out: IC50_Mean.

The target of assay [4] is T1, Corticotropin-releasing factor receptor 2/Corticotropin-releasing factor-binding protein. The experiment in a line: activators of CRF receptor 2 with binding protein – uHTS hits, confirmation (AID 602473). Type of assay: functional. The settings on record: read-out: EC50_Mean.
In the next assay the target is Cytochrome P450 3A4 (Homo sapiens, UniProt P08684).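 Note: CYP3A4 tested as one member of a cytochrome P450 panel screen.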
Cytochrome P450 3A4, sequence (P08684 whole entry): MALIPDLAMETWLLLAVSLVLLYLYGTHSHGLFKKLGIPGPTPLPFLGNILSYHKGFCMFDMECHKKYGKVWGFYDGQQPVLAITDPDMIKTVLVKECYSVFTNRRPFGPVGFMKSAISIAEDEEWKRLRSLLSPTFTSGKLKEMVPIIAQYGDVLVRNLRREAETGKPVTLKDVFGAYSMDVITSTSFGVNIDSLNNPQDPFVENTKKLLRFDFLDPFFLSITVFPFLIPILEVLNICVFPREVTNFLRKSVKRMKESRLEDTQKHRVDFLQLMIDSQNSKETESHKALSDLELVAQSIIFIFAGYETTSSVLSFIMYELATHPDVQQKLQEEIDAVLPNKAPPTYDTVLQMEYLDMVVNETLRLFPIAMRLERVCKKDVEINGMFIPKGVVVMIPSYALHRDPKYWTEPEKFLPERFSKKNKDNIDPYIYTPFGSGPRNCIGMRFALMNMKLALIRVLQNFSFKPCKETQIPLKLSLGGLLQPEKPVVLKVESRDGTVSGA
Assay [5] concerns Streptococcus sp. 'group A'. Kind of assay: Streptococcus pyogenes SK(-)GAS viability under kanamycin – luminescence, BacTiterGlo, confirmation, counter-screen for streptokinase expression inhibitor project, dose response (AID 1900). The assay is classed as functional, organism-based.
The subject of a further assay is Streptococcus. The experiment in a line: GAS UMAA2166 growth inhibition – luminescence, BacTiterGlo, counter-screen for streptokinase expression inhibitor project, dose response (AID 1915).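 Note: potency for reduction of bacterial viability or growth.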 Type of assay: functional, organism-based.
A further assay has as its target Paired box protein Pax-8 (Homo sapiens, UniProt Q06710). Kind of assay: PAX8 transcriptional activity inhibition in RMG-I – RMG-I cells, luciferase, cherry-pick, dose response (AID 687027).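 Note: luciferase reporter driven by Pax8 target thyroperoxidase promoter measured by SteadyGlo luminescence.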 The assay is classed as functional, cell-based.

Paired box protein Pax-8, sequence (Q06710 whole entry): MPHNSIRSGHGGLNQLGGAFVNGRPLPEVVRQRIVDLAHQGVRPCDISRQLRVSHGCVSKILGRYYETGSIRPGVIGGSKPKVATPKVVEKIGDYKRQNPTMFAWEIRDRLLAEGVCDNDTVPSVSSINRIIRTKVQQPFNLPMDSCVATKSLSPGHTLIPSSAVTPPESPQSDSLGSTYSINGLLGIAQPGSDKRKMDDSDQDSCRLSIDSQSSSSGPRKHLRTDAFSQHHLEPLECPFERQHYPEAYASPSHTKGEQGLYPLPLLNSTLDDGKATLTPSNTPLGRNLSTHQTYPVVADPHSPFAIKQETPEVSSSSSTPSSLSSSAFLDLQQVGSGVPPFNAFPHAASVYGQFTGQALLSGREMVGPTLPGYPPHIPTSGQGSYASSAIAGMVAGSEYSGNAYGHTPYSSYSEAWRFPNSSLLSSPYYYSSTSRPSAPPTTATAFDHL

Usually AC50 stands for the midpoint of the concentration-response curve, whichever way the signal moves. As to `COc1cc(CN2CCN(C(=O)CC(C)C)CC2)cc(OC)c1OC`, at Cytochrome P450 2C9, the AC50 was 28.2 µM (inconclusive).

Regarding `Cc1c(C(=O)Nc2nc3ccccc3[nH]2)oc2ccc(Br)cc12`, the EC50 in [1] was 1630 nM (active); in assay [2], > 60 µM (not active).

Regarding `O=S(=O)(NCc1ccccc1)c1ccccc1NCCc1ccccc1`, in [3], the IC50 is > 47.1 µM (inactive). In assay [4], the EC50 is > 53 µM (inactive).

Take `Cc1ccc(OCC(=O)Nc2ccc(S(=O)(=O)Nc3onc(C)c3C)cc2)cc1`: the AC50 at Cytochrome P450 3A4 is 35.5 µM (inconclusive).

Consider `CN1CCN(c2nc(N3CCN(c4ccccc4)CC3)ncc2F)CC1`, for which the EC50 is 253 nM (active) in assay [1] and > 30 µM (not active) in [2].

On to `COc1ccc(NS(=O)(=O)c2cc(-c3nnnn3C)ccc2OC)cc1`, for which the AC50 at Cytochrome P450 2C9 is 25.1 µM (inconclusive).

Consider `Cc1cc(O)ccc1N1C(=O)c2cccc3cc([N+](=O)[O-])cc(c23)C1=O`, for which the EC50 in assay [1] is 234 nM (active); in assay [2] it was > 60 µM (not active).

As for `CC1CC1c1ccc(/C=C(\C#N)C(=O)Nc2cccc(Cl)c2Cl)o1` (stereo not given), the EC50 in assay [4] was > 53 µM (inactive).

Regarding `CN1CCN(C(CNC(=O)C(=O)Nc2ccc3c(c2)OCCO3)c2ccc(F)cc2)CC1` (stereo not given), the EC50 is 952 nM (active) in [1] and > 60 µM (not active) in [2].

`CO[C@H]1C[C@@H](O[C@@H]2[C@H](C)[C@H](O[C@@H]3O[C@@H](C)C[C@@H](N(C)C)[C@@H]3O)[C@H](C)C[C@]3(CO3)C(=O)[C@H](C)[C@H](O)[C@H](C)[C@H](C)OC(=O)[C@@H]2C)O[C@@H](C)[C@H]1O`: the AC50 on Cytochrome P450 3A4 was 12.6 µM (inconclusive).

For the compound `Cc1ccc2nc(Cl)c(/C=C/C(=O)c3ccco3)cc2c1`, in assay [3], the IC50 was > 47.1 µM (inactive). The EC50 in assay [4] was > 53 µM (inactive).

Turning to `Cc1[nH]c(C)c(S(=O)(=O)NCCc2ccccc2)c1C(=O)N1CCCCC1`, in [3], the IC50 is > 47.1 µM (inactive). Besides, the EC50 in [4] is > 53 µM (inactive).

For `CCOc1ccc(Nc2nc(N3CCCC3)nc(N3CCN(c4ccc(OC)cc4)CC3)n2)cc1`, the EC50 was 2730 nM (active) in [1] and > 60 µM (not active) in [2].

On to `CC(C)(CNC(=O)c1cc(Cl)c(O)c(Cl)c1)N1CCCCC1`, for which the IC50 in assay [3] is > 47.1 µM (inactive). Besides, the EC50 in [4] is > 53 µM (inactive).

Regarding `O=[N+]([O-])c1nn(-c2ccc3c(c2)OCCO3)[n+]([O-])c1NC1CCCC1`, the EC50 in assay [1] was 880 nM (active); in assay [2], > 30 µM (not active).

For `Cc1ccc(CN2CCN(Cc3nc4c(s3)CCCC4)CC2CCO)cc1` (stereo not given), the values for the EC50 in [1] and in assay [2] were 546 nM (active) and > 60 µM (not active), respectively.

Turning to `Fc1ccc(Cn2nnnc2C(c2ccc(Cl)cc2)N2CC=C(c3ccc(F)cc3)CC2)cc1` (stereo not given), the results for the EC50 in [1] and in [2] were 1340 nM (active) and > 60 µM (not active), respectively.

With `CCCC(=O)NC(=S)Nc1ccc(S(=O)(=O)Nc2ccc(OCC)cc2)cc1`, the EC50 in [4] is > 53 µM (inactive).

In the case of `O=C(OCCN1C(=O)c2ccccc2C1=O)c1cccc(OC(F)F)c1`, in assay [3], the IC50 is > 47.1 µM (inactive). Also, the EC50 in [4] was > 53 µM (inactive).

Turning to `COCCNC(=O)CN(CC1CCCO1)C(=O)CCC(=O)Nc1ccccn1` (stereo not given), the IC50 in assay [3] was > 47.1 µM (inactive). Besides, the EC50 in assay [4] was > 53 µM (inactive).

Regarding `Cc1cccc(CN2CCN(CC(=O)O)C2=O)c1`, the AC50 at Cytochrome P450 3A4 was 15.8 µM (inconclusive).

Regarding `N#CCCn1c(=O)c(-c2ccccc2)nc2cnc(Oc3ccccc3)nc21`, at Cytochrome P450 2C9, the AC50 was 15.8 µM (inconclusive).

In the case of `CC(C)CCN=C(S)NC1CCCC1`, the results for the AC50 on Cytochrome P450 3A4 and at Cytochrome P450 2C9 were 22.4 µM (inconclusive) and 39.8 µM (inconclusive), respectively.

On to `O=C(CCC(=O)N1CCOc2ccc(Cl)cc21)NCc1ccccc1`, for which, in [4], the EC50 was > 53 µM (inactive).

Turning to `N=C(N)SCc1cccc(-c2nc3ccccc3c(=O)o2)c1`, the AC50 on Cytochrome P450 2C9 is 5.01 µM (inconclusive).

For `O=C(CCNS(=O)(=O)c1cccs1)N1CCc2ccccc2C1`, the AC50 at Cytochrome P450 3A4 was 14.1 µM (inconclusive).

As to `Cn1nc([N+](=O)[O-])nc1Oc1ccccc1C(=O)N1CCOCC1`, the EC50 in assay [1] was 117 nM (active); in assay [2], > 60 µM (not active).

Take `Cc1noc(C)c1CSc1nc2sc(C)c(C)c2c(=O)n1-c1ccccc1`: the EC50 in [1] is 1020 nM (active); in assay [2], > 60 µM (not active).

Regarding `COc1c(CC=C(C)C)cc(C2CC(=O)c3c(O)cc(O)cc3O2)c(CC=C(C)C)c1O` (stereo not given), the results for the EC50 (in assay [5]; with Streptococcus) were 3.02 µM (active) and 2.9 µM (active), respectively.

As for `Cc1nnsc1C(=O)NC1CCCc2c1cnn2-c1ccc(C(C)(C)C)cc1` (stereo not given), the EC50 was 1980 nM (active) in assay [1] and > 60 µM (not active) in [2].

As to `Cc1nnc2n(Cc3ccccc3)c(=O)c3c4c(sc3n12)COC(C)(C)C4`, in [3], the IC50 is > 47.1 µM (inactive). For the same compound, the EC50 in assay [4] was > 53 µM (inactive).

On to `CCCNCCC(c1ccco1)c1ccccc1OC` (stereo not given), for which the IC50 in [3] was > 47.1 µM (inactive). Further, the EC50 in assay [4] is > 53 µM (inactive).

With `COc1ccc(C(=O)OCC(=O)N(C)C2CCS(=O)(=O)C2)cc1S(=O)(=O)N(C)Cc1ccccc1` (stereo not given), the IC50 in assay [3] was > 47.1 µM (inactive). The EC50 in assay [4] is > 53 µM (inactive).

`COc1cc(CNCc2ccncc2)cc(Br)c1OCc1ccccc1F`: the EC50 in assay [1] is 2830 nM (active); in assay [2] it was > 30 µM (not active).

Regarding `Cc1ccc(NC(=O)CN(c2ccc(Cl)cc2)S(=O)(=O)c2cc([N+](=O)[O-])ccc2Cl)c(C)c1`, the EC50 in assay [1] was 2420 nM (active); in assay [2] it was > 60 µM (inconclusive).

Regarding `O=C(c1cnn2c(C(F)(F)F)cc(-c3cccs3)nc12)N1CCN(Cc2ccccc2)CC1`, the EC50 is 721 nM (active) in assay [1] and > 60 µM (not active) in assay [2].

For `COc1ccc(N2CCN(C3CCCCC3NS(=O)(=O)c3ccc(Cl)cc3)CC2)cc1` (stereo not given), the EC50 in assay [4] is 4.33 µM (active).

For `O=c1c(-c2cccc(Cl)c2)nc2cncnc2n1C1CC1`, the AC50 on Cytochrome P450 3A4 was 15.8 µM (inconclusive).

In the case of `Cc1cc(C)n(-c2nc(SCCN(C)C)c3c4c(sc3n2)COC(C)(C)C4)n1`, the results for the EC50 in [1] and in assay [2] were 836 nM (active) and > 30 µM (not active), respectively.

Consider `O=C(CSc1nnc(CNc2ccc(F)cc2)o1)OC1CCCCC1`, for which the AC50 on Cytochrome P450 2C9 is 17.8 µM (inconclusive).

Consider `O=C1CC(NS(=O)(=O)c2ccc([N+](=O)[O-])cc2)CN1c1ccc(Cl)cc1` (stereo not given), for which the figures for the EC50 in [1] and in assay [2] were 477 nM (active) and > 60 µM (not active), respectively.

As to `CCOC(=O)C1=C(CCc2ccccc2)NC(=O)NC1c1cccc([N+](=O)[O-])c1` (stereo not given), the IC50 in [3] is > 47.1 µM (inactive). The EC50 in assay [4] is > 53 µM (inactive).

Regarding `C=CCc1cccc(/C=N/NC(=O)C(C)Nc2cccc(C)c2)c1O` (stereo not given), the figures for the EC50 in assay [1] and in assay [2] were 1840 nM (active) and > 30 µM (not active), respectively.

Regarding `C[C@@H]1CN([C@@H](C)CO)C(=O)c2cc(NC(=O)Nc3ccc(C(F)(F)F)cc3)ccc2O[C@@H](C)CCCCO[C@@H]1CN(C)Cc1ccncc1`, the AC50 at Paired box protein Pax-8 is 9.03 µM (active).

As for `Cc1[nH]cnc1C(=O)N/N=C/c1ccc([N+](=O)[O-])s1`, the EC50 was 2.91 µM (active) in assay [5], 449 nM (active) in [1], 5.18 µM (active) in the assay with Streptococcus and > 60 µM (not active) in assay [2].

On to `CCn1/c(=N\C(=O)CS(=O)(=O)c2ccc(C)cc2)sc2cccc(OC)c21`, for which the EC50 is 1200 nM (active) in assay [1] and 8.46 µM (active) in assay [2].

As to `O=C(N/N=C/c1ccc(-c2cccc(C(F)(F)F)c2)o1)c1cccc(F)c1`, the EC50 was 1150 nM (active) in assay [1] and > 60 µM (not active) in [2].

With `Clc1ccc2c(N/N=C/c3cccnc3)ccnc2c1`, the figures for the EC50 in [1] and in [2] were 931 nM (active) and > 60 µM (not active), respectively.

`CC(C)[C@H](NC(=O)OCc1ccccc1)C(=O)N[C@H](C=O)Cc1ccccc1` (Cbz-Val-Phe-aldehyde): the AC50 on Cytochrome P450 2C9 is 39.8 µM (inconclusive).

As to `C[C@@H](C(=O)O)c1ccc(C(=O)c2cccs2)cc1` [(R)-SUPROFEN], on Cytochrome P450 2C9, the AC50 was 12.6 µM (inconclusive).
